Results: patent publication EP1857440A1, “Novel compounds, isomer thereof, or pharmaceutically acceptable salts thereof as vanilloid receptor antagonist; and pharmaceutical compositions containing the same” (Amorepacific Corporation, priority 2006, dated 2007)

Target: T1, vanilloid receptor (Rattus norvegicus, UniProt O35433)
T1 construct: DRG nerve cells from the primary culture of 2 days were equilibrated by washing 4 times; endogenous in cells; host or cells: primary culture of dorsal root ganglion (DRG) neurons from neonatal SD rats
T1 sequence (O35433 whole entry): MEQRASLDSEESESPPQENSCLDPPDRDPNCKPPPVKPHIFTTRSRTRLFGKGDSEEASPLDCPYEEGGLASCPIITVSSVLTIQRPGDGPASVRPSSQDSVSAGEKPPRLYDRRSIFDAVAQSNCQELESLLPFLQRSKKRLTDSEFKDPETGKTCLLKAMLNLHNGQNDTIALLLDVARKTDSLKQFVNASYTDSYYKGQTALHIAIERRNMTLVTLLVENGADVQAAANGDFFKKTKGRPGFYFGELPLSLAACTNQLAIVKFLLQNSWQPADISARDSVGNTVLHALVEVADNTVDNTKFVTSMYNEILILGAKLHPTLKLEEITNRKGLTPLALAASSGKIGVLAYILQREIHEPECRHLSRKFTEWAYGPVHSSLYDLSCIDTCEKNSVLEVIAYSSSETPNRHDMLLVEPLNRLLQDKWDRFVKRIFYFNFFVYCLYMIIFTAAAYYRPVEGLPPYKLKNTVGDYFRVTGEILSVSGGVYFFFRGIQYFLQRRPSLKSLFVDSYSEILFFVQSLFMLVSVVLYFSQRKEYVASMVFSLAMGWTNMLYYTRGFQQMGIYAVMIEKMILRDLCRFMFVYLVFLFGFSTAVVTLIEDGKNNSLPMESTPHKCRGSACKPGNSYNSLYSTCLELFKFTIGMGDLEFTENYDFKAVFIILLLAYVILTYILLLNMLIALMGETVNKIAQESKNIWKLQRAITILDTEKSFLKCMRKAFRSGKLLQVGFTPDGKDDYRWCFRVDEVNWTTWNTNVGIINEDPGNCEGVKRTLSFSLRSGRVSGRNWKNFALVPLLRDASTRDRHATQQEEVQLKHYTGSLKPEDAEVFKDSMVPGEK
Test: 45Ca influx test (calcium uptake) in primary cultured neonatal rat DRG neurons, capsaicin-stimulated
Assay type: cell-based, SD rats
Settings: capsaicin 0.5 µM; for IC50: 45Ca 10 µCi/ml, 10 mins at room temperature, read-out: Antagonist Calcium Uptake Test (IC50); for Antagonist Calcium Uptake Test (% @ 10 µM): 10 µM test compound
Procedure: 1) Separation of spinal dorsal root ganglia (DRG) in newborn rats and primary culture thereof
Neonatal (2-3 day old or younger than 2-3 day old) SD rats were put in ice for 5 minutes to anesthetize and disinfected with 70% ethanol. DRG of all part of spinal cord were dissected (Wood et al., 1988, J. Neurosci. 8, pp3208-3220) and collected in DME/F12 medium to which 1.2g/l sodium bicarbonate, 50mg/l gentamycin were added. The DRG were incubated sequentially at 37°C for 30 min in 200 U/ml collagenase and 2.5mg/ml trypsin, separately. The gangiia were washed twice with DME/F12 medium supplemented with 10% horse serum, triturated through a fire-polished Pasteur pipette, filtered through Nitex 80 membrane to obtain single cell suspension and the suspension was washed once more. This was subjected to centrifugation, then resuspended in cell culture medium at certain level of cell density. As the cell culture medium, DME/F12 medium supplemented with 10% horse serum was diluted with identical medium conditioned by C6 glioma cells 2 days on a confluent monolayer (1:1), and NGF (Nerve Growth Factor) was added to adjust 200ng/ml as final concentration. After the cells were grown 2 days in medium where cytosine arabinoside (Ara-C, 100 µM) was added to kill dividing nonneuronal cells, medium was changed to one without Ara-C. The resuspended cells were plated at a density of 1500-2000 neurons/well onto Terasaki plates previously coated with 10 µg/ml poly-D-ornithine.
2) ^45 Ca influx experiments
DRG nerve cells from the primary culture of 2 days were equilibrated by washing 4 times with HEPES (10mM, pH 7.4)-buffered Ca ^2+, Mg^2+-free HBSS (H-HBSS). The solution in each well was removed from the individual well. Medium containing the test compound plus capsaicin (final concentration 0.5 µM) and ^45Ca (final concentration 10 µCi/ml) in H-HBSS was added to each well and incubated at room temperature for 10 mins. Terasaki plates were washed five times with H-HBSS and dried at room temperature. To each well, 0.3% SDS (10 µl) was added to elute ^45Ca. After the addition of scintillation cocktail of into each well, the amount of ^45Ca influx into neuron was measured by counting radioactivity. […] [Table 1] Results of Calcium Influx Test

| Structure (SMILES) | IC50 | Antagonist Calcium Uptake Test (% @ 10 µM) |
| --- | --- | --- |
| CS(=O)(=O)Nc1ccc(CNC(=O)COc2ccccc2C(F)(F)F)cc1F [Example 51, 2-(2-trifluoromethyl-phenoxy)-N-(3-fluoro-4-methanesulfonylaminobenzyl)-acetamide] | > 10 µM | – |
| C[C@@H](NC(=S)COc1ccc(C(C)(C)C)cc1)c1ccc(NS(C)(=O)=O)cc1 [Example 15, (R)-2-(4-tert-Butylphenoxy)-N-[1-(4-methanesulfonylaminophenyl)ethyl]thioacetamide] | 0.68 µM | – |
| CS(=O)(=O)Nc1ccc(CNC(=O)COc2ccc(Cl)c(Cl)c2)cc1F [Example 25, 2-(3,4-Dichloro-phenoxy)-N-(3-fluoro-4-methanesulfonylaminobenzyl)-acetamide] | 2.3 µM | – |
| CC(C)(C)c1ccc(OCC(=O)NCc2cc(F)c(NS(C)(=O)=O)c(C#N)c2)cc1 [Example 47, 2-[4-(tert-butyl)phenoxy]-N-(3-cyano-5-fluoro-4-methanesulfonyl Amino-benzyl)acetamide] | 0.15 µM | – |
| CS(=O)(=O)Nc1ccc(CNC(=O)COc2ccc3c(c2)CCC3)cc1F [Example 62, N-(3-Fluoro-4-methanesulfonylaminobenzyl)-2-(indan-5-yloxy)acetamide] | – | 82% @ 10 µM |
| CS(=O)(=O)Nc1ccc(CNC(=O)COc2ccc(F)c(F)c2)cc1F [Example 54, N-(3-Fluoro-4-methanesulfonylaminobenzyl)-2-(3,4-difluorophenoxy)acetamide] | > 10 µM | – |
| COc1cc(C)ccc1OCC(=O)NCc1ccc(NS(C)(=O)=O)c(F)c1 [Example 31, N-(3-Fluoro-4-methanesulfonylamino-benzyl)-2-(2-methoxy-4-methyl-phenoxy)-acetamide] | > 10 µM | – |
| CC(C)(Oc1ccc(C(F)(F)F)cc1)C(=O)NCc1ccc(NS(C)(=O)=O)c(Cl)c1 [Example 21, N-(3-Chloro-4-methanesulfonylamino-benzyl)-2-methyl-2-(4-trifluoromethyl-phenoxy)-propionamide] | > 10 µM | – |
| CS(=O)(=O)Nc1ccc(CNC(=O)COCc2ccc(C(F)(F)F)cc2C(F)(F)F)cc1F [Example 56, N-(3-Fluoro-4-methanesulfonylaminobenzyl)-2-(2,4-bis(trifluoromethyl)benzyloxy)acetamide] | 5.1 µM | – |
| CC(C)(C)c1ccc(SCC(=O)NCc2ccc(NS(C)(=O)=O)c(F)c2)cc1 [Example 19, 2-(4-tert-Butyl-phenylsulfanyl)-N-(3-fluoro-4-methanesulfonylaminobenzyl)-acetamide] | 1.5 µM | – |
| CS(=O)(=O)Nc1ccc(CNC(=O)COc2cccc(Br)c2)cc1F [Example 46, 2-(3-Bromo-phenoxy)-N-(3-fluoro-4-methanesulfonylamino-benzyl)-acetamide] | 1.7 µM | – |
| C[C@H](Oc1ccc(C(C)(C)C)cc1)C(=O)NCc1ccc(NS(C)(=O)=O)c(F)c1 [Example 14, (S)-2-(4-tert-Butylphenoxy)-N-(3-fluoro-4-methanesulfonylaminobenzyl)propionamide] | 0.76 µM | – |
| CS(=O)(=O)Nc1ccc(CNC(=O)COc2ccccc2C2CCCCC2)cc1F [Example 63, N-(3-Fluoro-4-methanesulfonylaminobenzyl)-2-(2-cyclohexylphenoxy)acetamide] | – | 52% @ 10 µM |
| CCc1cc(CNC(=O)COc2ccc(C(C)(C)C)cc2)cc(F)c1NS(C)(=O)=O [Example 7, 2-(4-tert-Butylphenoxy)-N-(3-ethyl-5-fluoro-4-methanesulfonylaminobenzyl)acetamide] | 0.13 µM | – |
| CS(=O)(=O)Nc1ccc(CNC(=O)COc2ccc(C(F)(F)F)cc2N2CCOCC2)cc1F [Example 43, N-(3-Fluoro-4-methanesulfonylamino-benzyl)-2-(2-morpholin-4-yl-4-trifluoromethyl-phenoxy)-acetamide] | > 10 µM | – |
| CS(=O)(=O)Nc1ccc(CNC(=O)COc2cccc(-c3ccccc3Cl)c2)cc1F [Example 61, 2-(2'-Chloro-biphenyl-3-yloxy)-N-(3-fluoro-4-methanesulfonylaminobenzyl)-acetamide] | 4.5 µM | – |
| CCCOc1ccc(OCC(=O)NCc2ccc(NS(C)(=O)=O)c(F)c2)cc1 [Example 41, N-(3-Fluoro-4-methanesulfonylaminobenzyl)-2-(4-n-propoxyphenoxy)acetamide] | > 10 µM | – |

| Structure (SMILES) | IC50 | Antagonist Calcium Uptake Test (% @ 10 µM) |
| --- | --- | --- |
| CS(=O)(=O)Nc1ccc(CNC(=O)COc2ccc(Br)cc2)cc1F [Example 45, 2-(4-Bromo-phenoxy)-N-(3-fluoro-4-methanesulfonylamino-benzyl)-acetamide] | 3.7 µM | – |
| C[C@@H](Oc1ccc(C(C)(C)C)cc1)C(=O)NCc1ccc(NS(C)(=O)=O)c(F)c1 [Example 13, (R)-2-(4-tert-Butylphenoxy)-N-(3-fluoro-4-methanesulfonylaminobenzyl)propionamide] | 0.16 µM | – |
| CS(=O)(=O)Nc1ccc(CNC(=O)COc2cccc(Cl)c2)cc1F [Example 42, N-(3-Fluoro-4-methanesulfonylaminobenzyl)-2-(3-chlorophenoxy)acetamide] | > 10 µM | – |
| CC(C)(C)c1ccc(OCC(=O)NCc2ccc(NS(C)(=O)=O)c(F)c2)c(C(C)(C)C)c1 [Example 55, N-(3-Fluoro-4-methanesulfonylaminobenzyl)-2-(2,4-di-tert-butylphenoxy)acetamide] | 5.6 µM | – |
| CS(=O)(=O)Nc1ccc(CNC(=O)COc2ccc(Cl)cc2Cl)cc1F [Example 22, 2-(2,4-Dichloro-phenoxy)-N-(3-fluoro-4-methanesulfonylaminobenzyl)-acetamide] | > 10 µM | – |
| C=Cc1cc(CNC(=O)COc2ccc(C(C)(C)C)cc2)ccc1NS(C)(=O)=O [Example 4, 2-(4-tert-Butylphenoxy)-N-(4-methanesulfonylamino-3-vinylbenzyl)acetamide] | 0.081 µM | – |
| CS(=O)(=O)Nc1ccc(CNC(=O)COc2ccc(C(F)(F)F)cc2I)cc1F [Example 39, N-(3-Fluoro-4-methanesulfonylamino-benzyl)-2-(2-iodo-4-trifluoromethyl-phenoxy)-acetamide] | > 10 µM | – |
| CS(=O)(=O)Nc1ccc(CNC(=O)COCc2ccc(C(F)(F)F)cc2)cc1F [Example 26, N-(3-Fluoro-4-methanesulfonylamino-benzyl)-2-(4-trifluoromethylbenzyloxy)-acetamide] | > 10 µM | – |
| COc1cc(Cl)ccc1OCC(=O)NCc1ccc(NS(C)(=O)=O)c(F)c1 [Example 32, 2-(4-Chloro-2-methoxy-phenoxy)-N-(3-fluoro-4methanesulfonylamino-benzyl)-acetamide] | > 10 µM | – |
| Cc1cc(NS(C)(=O)=O)c(F)cc1CNC(=O)COc1ccc(C(C)(C)C)cc1 [Example 9, 2-(4-tert-Butylphenoxy)-N-(5-fluoro-4-methanesulfonylamino-2-methylbenzyl)acetamide] | 0.33 µM | – |
| CC(C)(C)c1ccc(OCC(=O)NCc2ccc(NS(C)(=O)=O)cc2)cc1 [Example 1, 2-(4-tert-Butylphenoxy)-N-(4-methanesulfonylaminobenzyl)acetamide] | 0.11 µM | – |
| C[C@@H](NC(=O)COc1ccc(C(C)(C)C)cc1)c1ccc(NS(C)(=O)=O)cc1 [Example 11, (R)-2-(4-tert-Butylphenoxy)-N-[1-(4-methanesulfonylaminophenyl)ethyl]acetamide] | 0.096 µM | – |
| Cc1cc(CNC(=O)COc2ccc(C(C)(C)C)cc2)cc(Cl)c1NS(C)(=O)=O [Example 8, 2-(4-tert-Butyl-phenoxy)-N-(3-chloro-4-methanesulfonylamino-5-methylbenzyl)acetamide] | 0.11 µM | – |
| CC(C)(C)C(=O)OCc1cc(C(F)(F)F)ccc1OCC(=O)NCc1ccc(NS(C)(=O)=O)c(F)c1 [Example 58, 2,2-Dimethyl-propionic acid 2-[(3-fluoro-4-methanesulfonylaminobenzylcarbamoyl)-methoxy]-5-trifluoromethyl-benzyl ester] | 3 µM | – |
| CCC(C)(C)c1ccc(OCC(=O)NCc2ccc(NS(C)(=O)=O)c(F)c2)cc1 [Example 57, N-(3-Fluoro-4-methanesulfonylaminobenzyl)-2-(4-(1,1-dimethylpropyl)phenoxy)acetamide] | 0.13 µM | – |
| CS(=O)(=O)Nc1ccc(CNC(=O)COc2cc(Cl)cc(Cl)c2)cc1F [Example 33, N-(3-Fluoro-4-methanesulfonylaminobenzyl)-2-(3,5-dichlorophenoxy)acetamide] | > 10 µM | – |
| C[C@@H](N/C(COc1ccc(C(C)(C)C)cc1)=N/C#N)c1ccc(NS(C)(=O)=O)cc1 [Example 17, (R)-2-(4-tert-Butylphenoxy)-N-[1-(4-methanesulfonylaminophenyl)ethyl]-N'-cyanoacetamidine] | 0.21 µM | – |
